Measured values from PMC12133000 (PLOS One, 2025).
Several values for one entry are separate records, joined by “and”; a condition that tells them apart may be missing. Equal values may be shown once. Read-outs that look alike come from different tables or passages of the source.

Test: Pharmacokinetics of rivaroxaban in rats after avitinib or gefitinib pretreatment
Assay type: in vivo, Sprague–Dawley (SD) rats
Details: for MRT last / AUC(0-inf) / Tmax / AUC(0-t) / CL/F / Cmax / half-life / MRT inf / Vd/F: male, Sprague-Dawley, rat, plasma, po, 10 mg/kg; for AUC(0-t): read-out: AUC(0–t); for CL/F: read-out: CLz/F (converted); for Cmax: read-out: Cmax; for half-life: read-out: t1/2 (converted); for MRT inf: read-out: MRT(0–∞); for Vd/F: read-out: Vz/F
Procedure: Eighteen male Sprague–Dawley (SD) rats weighing 300 ± 20 g were provided by the Experimental Animal Center of Wenzhou Medical University (Wenzhou, China) and kept under controlled conditions at a temperature of 23 ± 2 °C, relative humidity of 50 ± 10%, and 12 h light–dark cycle. Eighteen male SD rats were randomly assigned to three groups: avitinib, gefitinib, and control, with six rats per group. Prior to the experiment, the rats were not administered any other medications and fasted for 12 h. The experimental procedures and protocols adhered to Animal Ethics standards and were approved by the Animal Care and Use Committee of Wenzhou Medical University (approval no. wydw2019–650). All rats were anesthetized with sodium pentobarbital (40mg/kg, i.p) to relieve pain. The rats were killed through cervical dislocation.
Prior to the experiment in vivo, the six rats in the avitinib group were administered 30 mg/kg avitinib and 0.5% sodium carboxymethyl cellulose (CMC-Na) solution by gavage daily for 7 d. […] The supernatant was collected and stored at −80 °C. After thawing, 50 μL of plasma was extracted; 100 μL of acetonitrile solution containing midazolam (200 ng/mL) was then added to induce protein precipitation. After vortexing for 30 s and centrifuging at 13,000 rpm for 5 min, the […].
All assays were performed in triplicate, and the results are expressed as mean ± standard deviation. DAS software v. […] SPSS v. 25.0 (IBM, NY, USA) was used for data processing. Student’s t-tests were used to detect differences between groups. Differences with p < 0.05 were considered statistically significant.

[1] = rats, rivaroxaban 10 mg/kg oral, avitinib group (30 mg/kg pretreatment)
[2] = rats, rivaroxaban 10 mg/kg oral, control group (CMC-Na only)
[3] = rats, rivaroxaban 10 mg/kg oral, gefitinib group (25 mg/kg pretreatment)

MRT last (gefitinib group, single rats No1-No6, read-out: MRT(0-t)): 5.59 h | AUC(0-inf) [1]: 9350 ± 3840 ng·h/mL | Tmax [1]: 1.33 ± 0.82 h | AUC(0-t) [1]: 9000 ± 3740 ng·h/mL | CL/F [1]: 19.7 mL/min/kg | Cmax [1]: 1810 ± 619 ng/mL | MRT last (rats, rivaroxaban 10 mg/kg oral, avitinib group (30 mg/kg pretreatment), read-out: MRT(0–t)): 3.79 ± 0.66 h | half-life [1]: 132 ± 64.2 min | AUC(0-inf) [2]: 2280 ± 870 ng·h/mL | Tmax [2]: 0.83 ± 0.26 h | AUC(0-t) [2]: 2250 ± 853 ng·h/mL | CL/F [2]: 80.8 mL/min/kg | Cmax [2]: 441 ± 81.8 ng/mL | MRT last (rats, rivaroxaban 10 mg/kg oral, control group (CMC-Na only), read-out: MRT(0–t)): 3.79 ± 1.08 h | MRT inf [2]: 3.95 ± 1.05 h | Vd/F [2]: 11.5 ± 2.63 L/kg | half-life [2]: 96.6 ± 36.6 min | AUC(0-inf) [3]: 76000 ± 20800 ng·h/mL | Tmax [3]: 3.17 ± 0.98 h | AUC(0-t) [3]: 58000 ± 5890 ng·h/mL | CL/F [3]: 2.33 mL/min/kg | Cmax [3]: 8310 ± 2100 ng/mL | MRT last (rats, rivaroxaban 10 mg/kg oral, gefitinib group (25 mg/kg pretreatment), read-out: MRT(0–t)): 4.9 ± 0.47 h | MRT inf [3]: 8.23 ± 3.61 h | Vd/F [3]: 0.87 ± 0.28 L/kg | half-life [3]: 289 ± 162 min | MRT(0–∞) [1]: 4.26 ± 1.12 h
Structure (SMILES): O=C(NC[C@H]1CN(c2ccc(N3CCOCC3=O)cc2)C(=O)O1)c1ccc(Cl)s1 [rivaroxaban, Rivaroxaban]
rivaroxaban (吉非替尼 (gefitinib) group, individual rats 7-12, time 0.0833): 778.8 ng/mL and 334.9 ng/mL and 724.5 ng/mL and 847.1 ng/mL and 256.3 ng/mL and 816.3 ng/mL | rivaroxaban (吉非替尼 (gefitinib) group, individual rats 7-12, time 0.25): 1686.1 ng/mL and 1476.8 ng/mL and 2176.1 ng/mL and 1686 ng/mL and 1747.2 ng/mL | rivaroxaban (吉非替尼 (gefitinib) group, individual rats 7-12, time 0.5): 3330.8 ng/mL and 4408.9 ng/mL and 4082.8 ng/mL and 3161.2 ng/mL and 3240.3 ng/mL | rivaroxaban (吉非替尼 (gefitinib) group, individual rats 7-12, time 1): 5012 ng/mL and 6707.2 ng/mL and 5280.7 ng/mL and 6110.2 ng/mL and 4481.1 ng/mL | rivaroxaban (吉非替尼 (gefitinib) group, individual rats 7-12, time 2): 8309.8 ng/mL and 7015.4 ng/mL and 10641.7 ng/mL and 6946 ng/mL | rivaroxaban (吉非替尼 (gefitinib) group, individual rats 7-12, time 3): 6431.9 ng/mL and 10386.8 ng/mL and 7734.1 ng/mL | rivaroxaban (吉非替尼 (gefitinib) group, individual rats 7-12, time 4): 6136.6 ng/mL and 9214.1 ng/mL and 6949.9 ng/mL | rivaroxaban (吉非替尼 (gefitinib) group, individual rats 7-12, time 6): 6115 ng/mL and 5681 ng/mL and 5825.4 ng/mL | rivaroxaban (吉非替尼 (gefitinib) group, individual rats 7-12, time 8): 3374.5 ng/mL and 2542.2 ng/mL and 4779.1 ng/mL | rivaroxaban (吉非替尼 (gefitinib) group, individual rats 7-12, time 12): 732.7 ng/mL and 1716.7 ng/mL and 1654.8 ng/mL and 917.3 ng/mL | rivaroxaban (对照 (control, rivaroxaban alone) group, individual rats 13-18, time 0.0833): 278.3 ng/mL and 142.7 ng/mL and 136.5 ng/mL and 68.9 ng/mL and 158.6 ng/mL and 163.2 ng/mL | rivaroxaban (对照 (control, rivaroxaban alone) group, individual rats 13-18, time 0.25): 264.9 ng/mL and 294.2 ng/mL and 171.8 ng/mL and 256.9 ng/mL and 261.1 ng/mL | rivaroxaban (对照 (control, rivaroxaban alone) group, individual rats 13-18, time 0.5): 465.3 ng/mL and 337.5 ng/mL and 461.6 ng/mL and 378.7 ng/mL and 305.8 ng/mL | rivaroxaban (对照 (control, rivaroxaban alone) group, individual rats 13-18, time 2): 261.4 ng/ml (2×) and 475.9 ng/ml and 181.6 ng/ml and 351.5 ng/ml and 418.6 ng/ml and 334.6 ng/ml | rivaroxaban (对照 (control, rivaroxaban alone) group, individual rats 13-18, time 3): 240.8 ng/mL and 431.8 ng/mL and 207.2 ng/mL and 349.6 ng/mL | rivaroxaban (艾维替尼 (avitinib) group, individual rats 1-6, time 0.0833): 380.2 ng/mL and 320.6 ng/mL and 287.7 ng/mL and 191 ng/mL and 288.9 ng/mL and 237.4 ng/mL | rivaroxaban (艾维替尼 (avitinib) group, individual rats 1-6, time 0.25): 386.7 ng/ml (2×) and 727.9 ng/ml and 581.8 ng/ml and 614.9 ng/ml and 286.3 ng/ml and 927.5 ng/ml | rivaroxaban (艾维替尼 (avitinib) group, individual rats 1-6, time 0.5): 990.9 ng/ml (2×) and 1066.3 ng/ml and 1018.5 ng/ml and 978.4 ng/ml and 583.2 ng/ml and 1904.4 ng/ml | rivaroxaban (艾维替尼 (avitinib) group, individual rats 1-6, time 1): 1423.2 ng/ml (2×) and 1593.7 ng/ml and 2386.3 ng/ml and 1162.7 ng/ml and 1561.2 ng/ml and 2231.2 ng/ml
